According to the NIST ThermoML archive (doi:10.1016/j.jct.2019.105883):

Experiment: xn = mol fraction of the nth substance listed
Conditions: 101.3 kPa, Liquid; for viscosity: Concentric cylinders viscometry; for mass density: Vibrating tube method

CCN.Cl [ethylammonium chloride] + CC(N)=O
Conditions | mass density, 313.2 K [kg/m3] | mass density, 323.2 K [kg/m3] | mass density, 333.2 K [kg/m3] | mass density, 343.2 K [kg/m3] | mass density, 353.2 K [kg/m3] | viscosity, 313.2 K [mPa·s] | viscosity, 323.2 K [mPa·s] | viscosity, 333.2 K [mPa·s] | viscosity, 343.2 K [mPa·s] | viscosity, 353.2 K [mPa·s]
x1 = 0.252 | 1041 | 1034.3 | 1027.6 | 1020.9 | 1014.2 | 32.6 | 27.8 | 21.9 | 18.4 | 15.2
x1 = 0.337 | 1042.8 | 1036.4 | 1030 | 1023.7 | 1017.3 | 58 | 39.2 | 29.1 | 23.3 | 18.6
x1 = 0.5 | 1043.8 | 1037.9 | 1032 | 1026.2 | 1020.4 | 71.5 | 48.4 | 35.8 | 28.2 | 23.5
